# Experimental data reported in publication PMC13184981, “Discovery and Development of a Potent LIMK2 Isoform-Specific Degrader” (ACS Chemical Biology, 2026).
# pEC50: −log10 of the molar value.
# What was measured:
# [1] = Microsomal stability assay; assay type: in vitro ADME; conditions: rat liver microsomes
# Experimental: The solubilized test compound (5 μL, final concentration 10 μM) was preincubated at 37 °C in 432 μL of 0.1 M phosphate buffer (pH 7.4) together with 50 μL of an NADPH-regenerating system containing 30 mM glucose-6-phosphate, 4 U/mL glucose-6-phosphate dehydrogenase, 10 mM NADP, and 30 mM MgCl2. After 5 min, the reaction was initiated by adding 13 μL of rat liver microsomes (Sprague–Dawley, Invitrogen; 20 mg mL^–1 protein in 0.1 M phosphate buffer) and incubated in a shaking water bath at 37 °C. The reaction was quenched at 0, 15, 30, and 60 min by adding 500 μL of ice-cold methanol. Samples were centrifuged at 5,000 × g for 5 min at 4 °C, and the supernatants were analyzed by HPLC to quantify the remaining parent compound. HPLC conditions were as follows: mobile phase composed of methanol (40–90%) and water with 0.1% formic acid (10–60%), optimized for the test compound; flow rate 1 mL/min; stationary phase Purospher STAR RP-18 column (5 μm, 125 × 4 mm) with a guard column (5 μm, 4 × 4 mm); detection wavelengths at 254 and 280 nm; injection volume 50 μL. […] Compound concentrations were determined using an external calibration curve. Data are expressed as mean ± SEM of the remaining parent compound from three independent experiments.
# [2] = target: T1, NanoLuc-tagged LIMK2 and Halo-tagged CRBN (Homo sapiens, UniProt P53671+Q96SW2); test: NanoBRET cellular ternary complex formation, LIMK2; assay type: cell-based
# T1 construct: CRBN vector in-house NV1531; host or cells: HEK293T
# Source text: (§1) Next, we assessed ternary complex formation for the parent and lead PROTACs in live cells using the NanoBRET proximity assay. A ternary complex assay system was established using NanoLuc-tagged LIMKs and Halo-tagged CRBN. Formation of the ternary complex upon PROTAC addition was quantified by measuring the BRET signal. […] However, they differed in the strength of the ternary complex. […] We also confirmed the differences in ternary complex strength using the orthogonal PROXICapture approach, in which MOLT-4 cell lysate was passed over immobilized FLAG-tagged CRBN preincubated with THNAN69.
# (§2) Gene encoding LIMK1 (Promega, NV3391) and LIMK2 (Promega, NV1531) proteins cloned in frame with NanoLuc fusion tag at the C-Terminus and gene encoding cereblon (generated in-house) cloned in frame with Halo Tag at the N-Terminus, were used to measure the end-point ternary complex formation between the PROTACs and LIMK1 and LIMK2, respectively. […] To measure BRET, NanoBRET NanoGlo Substrate + Extracellular NanoLuc Inhibitor (Promega, N2162) was added to cells as per the manufacturer’s protocol, and filtered luminescence was measured on a PHERAstar FSX plate reader (BMG Labtech) equipped with a luminescence filter pair (450 nm BP filter (donor) and 610 nm LP filter (acceptor)). […]
# [3] = target: T2, NanoLuc-tagged LIMK1 and Halo-tagged CRBN (Homo sapiens, UniProt P53667+Q96SW2); test: NanoBRET cellular ternary complex formation, LIMK1; assay type: cell-based
# T2 construct: CRBN vector in-house NV3391; host or cells: HEK293T
# Source text: as §1, §2
# T1 sequence (P53671 whole entry): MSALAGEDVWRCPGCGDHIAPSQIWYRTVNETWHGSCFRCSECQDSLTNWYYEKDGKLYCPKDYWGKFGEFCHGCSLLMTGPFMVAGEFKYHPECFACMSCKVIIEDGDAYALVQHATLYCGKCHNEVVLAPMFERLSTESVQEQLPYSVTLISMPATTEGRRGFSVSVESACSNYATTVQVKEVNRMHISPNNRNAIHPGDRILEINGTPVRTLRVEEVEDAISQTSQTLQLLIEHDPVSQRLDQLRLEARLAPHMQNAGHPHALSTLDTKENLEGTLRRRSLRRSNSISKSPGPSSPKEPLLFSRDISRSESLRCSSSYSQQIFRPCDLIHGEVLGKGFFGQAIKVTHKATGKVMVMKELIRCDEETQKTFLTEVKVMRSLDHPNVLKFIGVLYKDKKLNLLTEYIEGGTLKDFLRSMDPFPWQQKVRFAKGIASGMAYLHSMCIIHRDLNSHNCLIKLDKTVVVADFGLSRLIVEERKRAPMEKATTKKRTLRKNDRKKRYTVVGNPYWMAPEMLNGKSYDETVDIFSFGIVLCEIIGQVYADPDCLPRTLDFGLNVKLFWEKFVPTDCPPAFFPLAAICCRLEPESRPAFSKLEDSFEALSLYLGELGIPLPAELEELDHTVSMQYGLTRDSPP
# T1 sequence (Q96SW2 whole entry): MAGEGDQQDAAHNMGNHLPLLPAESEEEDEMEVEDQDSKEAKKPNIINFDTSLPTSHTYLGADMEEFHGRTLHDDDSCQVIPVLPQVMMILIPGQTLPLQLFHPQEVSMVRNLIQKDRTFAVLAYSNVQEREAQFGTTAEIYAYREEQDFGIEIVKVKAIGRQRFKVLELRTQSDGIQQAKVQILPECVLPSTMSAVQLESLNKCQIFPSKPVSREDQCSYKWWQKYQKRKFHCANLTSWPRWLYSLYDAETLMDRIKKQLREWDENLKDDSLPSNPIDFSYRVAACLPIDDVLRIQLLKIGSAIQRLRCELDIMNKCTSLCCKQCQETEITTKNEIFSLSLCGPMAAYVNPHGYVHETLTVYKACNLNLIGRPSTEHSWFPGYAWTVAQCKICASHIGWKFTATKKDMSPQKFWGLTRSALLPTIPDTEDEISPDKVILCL
# T1 sequence (Q16531 whole entry partner): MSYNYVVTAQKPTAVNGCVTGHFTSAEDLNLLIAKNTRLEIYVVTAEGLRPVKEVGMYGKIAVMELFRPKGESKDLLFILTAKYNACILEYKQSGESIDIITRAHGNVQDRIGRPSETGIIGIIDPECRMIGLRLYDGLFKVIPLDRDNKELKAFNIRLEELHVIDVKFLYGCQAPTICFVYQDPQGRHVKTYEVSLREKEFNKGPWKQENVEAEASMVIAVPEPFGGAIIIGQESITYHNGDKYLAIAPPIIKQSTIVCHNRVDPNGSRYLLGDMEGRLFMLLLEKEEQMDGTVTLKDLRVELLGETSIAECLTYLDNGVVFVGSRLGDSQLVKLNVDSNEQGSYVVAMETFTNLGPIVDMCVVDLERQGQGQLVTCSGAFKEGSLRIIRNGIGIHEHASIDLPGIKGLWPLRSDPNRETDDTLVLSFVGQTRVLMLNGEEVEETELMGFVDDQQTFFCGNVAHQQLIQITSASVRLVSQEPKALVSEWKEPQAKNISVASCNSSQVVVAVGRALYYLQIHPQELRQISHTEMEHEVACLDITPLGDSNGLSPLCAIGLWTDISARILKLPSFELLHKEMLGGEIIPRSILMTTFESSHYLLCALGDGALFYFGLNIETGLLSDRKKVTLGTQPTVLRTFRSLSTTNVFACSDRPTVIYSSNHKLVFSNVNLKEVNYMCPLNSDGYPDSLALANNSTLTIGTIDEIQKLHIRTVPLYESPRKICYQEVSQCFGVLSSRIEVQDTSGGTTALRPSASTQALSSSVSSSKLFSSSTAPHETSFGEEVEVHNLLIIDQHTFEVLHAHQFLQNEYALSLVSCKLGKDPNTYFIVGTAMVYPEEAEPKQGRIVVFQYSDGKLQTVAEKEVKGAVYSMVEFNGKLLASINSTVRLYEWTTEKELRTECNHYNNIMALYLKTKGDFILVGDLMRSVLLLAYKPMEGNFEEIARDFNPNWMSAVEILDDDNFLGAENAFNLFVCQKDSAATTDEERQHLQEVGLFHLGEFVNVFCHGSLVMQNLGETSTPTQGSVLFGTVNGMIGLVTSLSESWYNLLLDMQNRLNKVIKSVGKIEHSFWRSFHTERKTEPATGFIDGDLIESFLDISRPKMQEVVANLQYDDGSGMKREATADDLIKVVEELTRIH
# T2 sequence (P53667 whole entry): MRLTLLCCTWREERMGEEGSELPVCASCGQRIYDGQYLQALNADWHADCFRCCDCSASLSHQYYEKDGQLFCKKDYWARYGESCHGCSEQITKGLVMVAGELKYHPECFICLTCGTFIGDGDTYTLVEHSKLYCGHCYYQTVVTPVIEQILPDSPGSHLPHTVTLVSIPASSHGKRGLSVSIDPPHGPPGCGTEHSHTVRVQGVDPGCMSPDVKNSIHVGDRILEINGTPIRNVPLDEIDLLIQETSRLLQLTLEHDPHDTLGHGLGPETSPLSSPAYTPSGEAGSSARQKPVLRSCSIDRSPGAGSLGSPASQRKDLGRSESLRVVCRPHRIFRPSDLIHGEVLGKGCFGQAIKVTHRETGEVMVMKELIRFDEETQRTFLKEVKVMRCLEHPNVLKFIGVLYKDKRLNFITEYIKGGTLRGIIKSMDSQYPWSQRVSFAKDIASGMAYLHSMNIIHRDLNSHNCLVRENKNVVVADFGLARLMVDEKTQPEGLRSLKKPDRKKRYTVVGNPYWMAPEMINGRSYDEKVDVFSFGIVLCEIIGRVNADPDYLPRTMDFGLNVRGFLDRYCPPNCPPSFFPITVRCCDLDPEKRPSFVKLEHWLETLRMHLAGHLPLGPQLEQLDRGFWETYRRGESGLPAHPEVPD
# T2 sequence (Q96SW2 whole entry): as the sequence (Q96SW2 whole entry) above
# T2 sequence (Q16531 whole entry partner): as the sequence (Q16531 whole entry partner) above
compound,measurement,setting,value
Cc1c(OCc2cn(CCCCC(=O)Nc3ncc(-c4cc(C(F)F)nn4-c4c(Cl)cccc4Cl)s3)nn2)cccc1N1CCC(=O)NC1=O [22b],metabolic stability (in words),[1],favorable metabolic stability
same,parent PROTAC remaining,"[1]; 60 min, 10 μM, HPLC",85%
same,pEC50,[2],7.11
same,pEC50,[3],6.52
